Assays:
[1] = target: T1, KIT(L576P) (Homo sapiens, UniProt P10721, L576P); test: KINOMEscan; assay type: binding; settings: read-out: % Ctrl
T1 construct: purchased DiscoveRx KINOMEscan

[2] = target: T2, PIK3CA(Q546K) (Homo sapiens, UniProt P42336, Q546K); test: KINOMEscan; assay type: binding; settings: read-out: % Ctrl
T2 construct: purchased DiscoveRx KINOMEscan

[3] = target: T3, KIT(V559D,V654A) (Homo sapiens, UniProt P10721, V559D/V654A); test: KINOMEscan; assay type: binding; settings: read-out: % Ctrl
T3 construct: purchased DiscoveRx KINOMEscan

[4] = target: T4, EGFR(L858R) (Homo sapiens, UniProt P00533, L858R); test: KINOMEscan; assay type: binding; settings: read-out: % Ctrl
T4 construct: purchased DiscoveRx KINOMEscan
T4 sequence (P00533 25-1210 L858R): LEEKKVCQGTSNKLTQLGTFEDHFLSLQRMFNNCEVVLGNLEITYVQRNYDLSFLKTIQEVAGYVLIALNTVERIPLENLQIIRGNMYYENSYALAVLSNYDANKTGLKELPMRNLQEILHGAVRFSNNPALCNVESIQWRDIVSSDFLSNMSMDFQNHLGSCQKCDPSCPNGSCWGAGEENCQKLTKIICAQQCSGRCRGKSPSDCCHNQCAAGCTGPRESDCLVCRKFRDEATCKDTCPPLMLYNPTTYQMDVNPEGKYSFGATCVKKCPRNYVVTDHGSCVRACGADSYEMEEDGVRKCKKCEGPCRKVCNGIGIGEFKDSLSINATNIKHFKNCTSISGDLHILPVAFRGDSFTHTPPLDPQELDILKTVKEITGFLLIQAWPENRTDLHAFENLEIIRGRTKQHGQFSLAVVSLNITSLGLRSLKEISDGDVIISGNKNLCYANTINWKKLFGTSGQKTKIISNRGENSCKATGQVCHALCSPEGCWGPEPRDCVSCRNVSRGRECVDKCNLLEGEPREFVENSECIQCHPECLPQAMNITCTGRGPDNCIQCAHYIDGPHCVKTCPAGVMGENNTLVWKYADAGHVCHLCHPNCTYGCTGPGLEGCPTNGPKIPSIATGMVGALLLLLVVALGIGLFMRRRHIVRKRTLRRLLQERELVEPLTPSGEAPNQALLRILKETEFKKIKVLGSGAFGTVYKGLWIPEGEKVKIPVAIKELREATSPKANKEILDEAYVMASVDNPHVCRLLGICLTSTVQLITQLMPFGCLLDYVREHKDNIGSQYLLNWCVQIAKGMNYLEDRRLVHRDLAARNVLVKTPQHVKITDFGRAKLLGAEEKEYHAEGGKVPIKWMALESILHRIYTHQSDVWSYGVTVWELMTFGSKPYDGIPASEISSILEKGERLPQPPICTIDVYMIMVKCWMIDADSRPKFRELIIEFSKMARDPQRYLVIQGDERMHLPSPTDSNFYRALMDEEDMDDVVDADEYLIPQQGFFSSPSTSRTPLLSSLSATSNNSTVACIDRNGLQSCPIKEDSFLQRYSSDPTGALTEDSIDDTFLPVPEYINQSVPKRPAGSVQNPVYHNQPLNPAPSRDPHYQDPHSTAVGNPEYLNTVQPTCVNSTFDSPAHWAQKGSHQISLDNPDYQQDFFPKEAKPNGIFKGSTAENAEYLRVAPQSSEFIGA

[5] = target: T5, EGFR(L747-E749del, A750P) (Homo sapiens, UniProt P00533, A750P/DEL747-749); test: KINOMEscan; assay type: binding; settings: read-out: % Ctrl
T5 construct: purchased DiscoveRx KINOMEscan
T5 sequence (P00533 with tags, fused parts or gaps DEL747-749/A750P limits assumed): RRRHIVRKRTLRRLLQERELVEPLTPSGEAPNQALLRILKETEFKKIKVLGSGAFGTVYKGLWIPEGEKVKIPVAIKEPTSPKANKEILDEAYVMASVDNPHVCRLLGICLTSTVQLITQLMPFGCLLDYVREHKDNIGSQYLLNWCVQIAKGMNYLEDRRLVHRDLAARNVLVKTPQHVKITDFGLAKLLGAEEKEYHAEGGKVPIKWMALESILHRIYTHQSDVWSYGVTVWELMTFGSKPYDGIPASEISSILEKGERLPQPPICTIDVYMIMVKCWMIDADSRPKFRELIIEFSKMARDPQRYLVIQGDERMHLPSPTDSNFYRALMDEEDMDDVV

[6] = target: T6, P-gp (Homo sapiens, UniProt P08183); test: P-gp ATPase activity assay; assay type: biochemical; settings: compared with DMSO; TBPT 2 μM, 1 h; human cell membrane P-gp fractions
T6 construct: purchased Promega Biotech, Madison, WI, USA
Procedure: The P-gp ATPase activity was determined in human cell membrane P-gp fractions using a luminescence-based assay.
The P-gp ATPase activity assay was conducted using the P-gp Glo Assay System following the manufacturer's protocol (Promega Biotech, Madison, WI, USA). […] Then, the luminescence was measured using a POLARstar Galaxy luminometer (BMG Labtech, Offenburg, Germany). The change in luminescence was calculated by comparing the Na3VO4-treated samples with the other compound-treated samples. The change in luminescence change is proportional to the ATP consumption in the samples, which correlated positively with the P-gp ATPase activity.

[7] = system: H460TaxR; test: Mitochondrial membrane potential (JC-1); assay type: cell-based, human; settings: 2 μM, 12 h
Procedure: (§1) The mitochondrial membrane potential was determined using JC-1 dye (Beyotime, Beijing, China). NSCLC cells (4 × 10^4 cells in 0.5 ml) were seeded in 24-well culture plates. […] Carbonyl cyanide m-chlorophenylhydrazone (CCCP; 10 μM), a mitochondrial membrane disrupter, was used to treat cells for 20 min as a positive control. Then, the cells were incubated with 200 μl JC-1 working solution at 37 °C for 20 min. After the cells were washed in RPMI-1640 medium, they were observed and imaged using a fluorescence microscope (Olympus IX71).

[8] = system: H460; test: Mitochondrial membrane potential (JC-1); assay type: cell-based, human; settings: H460, 2 μM, 12 h
Procedure: as §1

[9] = plasma stability; assay type: in vitro ADME; settings: human, read-out: T1/2 in human plasma
Text: As in vivo investigations are generally time consuming and expensive, it is advantageous to eliminate those compounds that are not suitable for animal experiments. One of the necessary steps is to screen the initial hits using assays testing their possible behaviors in vivo. To evaluate the drug-like properties of TBPT, a panel of in vitro assays was preformed (Table 1). The parallel artificial membrane permeability assay (PAMPA) was used to evaluate the cell permeability of the compounds. Compounds with a Pe >[…] are classified as highly permeable. […] The Caco-2 assay was used to predict the oral absorption values of the compounds in vivo. Compounds with a Caco-2 efflux ratio >2 may be subject to active efflux and should not be developed further. […] The half-life (T1/2) in human liver microsomes is used to predict the metabolism properties of compounds in vivo. […] A very long T1/2 (>24 h) increases the risk of cumulative toxicity and is not desirable. […] T1/2 in plasma indicates the stability of the drug in human blood; the high T1/2 values of these compounds indicated better stability in vivo. Plasma protein binding influences the distribution of drugs into body tissues, and compounds with high plasma protein binding (>99%) are limited in terms of the amount of free compound that are available to act on the targeted tissue. […]

[10] = system: H460TaxR; test: Immunofluorescence staining for microtubule structure; assay type: cell-based, human; settings: 2 μM, 24 h
Procedure: (§2) The cells were washed in PBS and then fixed in paraformaldehyde (4% v/v) for 10 min. After the cells were washed three times in PBS, they were blocked with 5% (w/v) BSA for 30 min at RT. Then, α-tubulin antibody (CST, Beverly, MA, USA) was incubated with cells in a humid chamber overnight at 4 °C. After the cells were washed three times in PBS, they were incubated with goat anti-rabbit IgG-FITC (Jackson ImmunoResearch, West Grove, PA, USA) for 1 h at 37 °C. Then, the cells were mounted with mounting medium containing DAPI (Vector Lab, Peterborough, UK) after they were washed three times in PBS. Finally, the cells were observed and imaged using a fluorescence microscope (Olympus IX71, Tokyo, Japan).

[11] = system: H460; test: as above; assay type: cell-based, human; settings: H460, 2 μM, 24 h
Procedure: as §2

[12] = target: T7, FLT3(D835Y) (Homo sapiens, UniProt P36888, D835Y); test: KINOMEscan; assay type: binding; settings: read-out: % Ctrl
T7 construct: purchased DiscoveRx KINOMEscan

[13] = target: T8, ABL1(F317L)-phosphorylated (Homo sapiens, UniProt P00519, F317L); test: KINOMEscan; assay type: binding; settings: read-out: % Ctrl
T8 construct: purchased DiscoveRx KINOMEscan

[14] = target: T9, PIK3CA(E545A) (Homo sapiens, UniProt P42336, E545A); test: KINOMEscan; assay type: binding; settings: read-out: % Ctrl
T9 construct: purchased DiscoveRx KINOMEscan
T9 sequence (P42336 whole entry E545A): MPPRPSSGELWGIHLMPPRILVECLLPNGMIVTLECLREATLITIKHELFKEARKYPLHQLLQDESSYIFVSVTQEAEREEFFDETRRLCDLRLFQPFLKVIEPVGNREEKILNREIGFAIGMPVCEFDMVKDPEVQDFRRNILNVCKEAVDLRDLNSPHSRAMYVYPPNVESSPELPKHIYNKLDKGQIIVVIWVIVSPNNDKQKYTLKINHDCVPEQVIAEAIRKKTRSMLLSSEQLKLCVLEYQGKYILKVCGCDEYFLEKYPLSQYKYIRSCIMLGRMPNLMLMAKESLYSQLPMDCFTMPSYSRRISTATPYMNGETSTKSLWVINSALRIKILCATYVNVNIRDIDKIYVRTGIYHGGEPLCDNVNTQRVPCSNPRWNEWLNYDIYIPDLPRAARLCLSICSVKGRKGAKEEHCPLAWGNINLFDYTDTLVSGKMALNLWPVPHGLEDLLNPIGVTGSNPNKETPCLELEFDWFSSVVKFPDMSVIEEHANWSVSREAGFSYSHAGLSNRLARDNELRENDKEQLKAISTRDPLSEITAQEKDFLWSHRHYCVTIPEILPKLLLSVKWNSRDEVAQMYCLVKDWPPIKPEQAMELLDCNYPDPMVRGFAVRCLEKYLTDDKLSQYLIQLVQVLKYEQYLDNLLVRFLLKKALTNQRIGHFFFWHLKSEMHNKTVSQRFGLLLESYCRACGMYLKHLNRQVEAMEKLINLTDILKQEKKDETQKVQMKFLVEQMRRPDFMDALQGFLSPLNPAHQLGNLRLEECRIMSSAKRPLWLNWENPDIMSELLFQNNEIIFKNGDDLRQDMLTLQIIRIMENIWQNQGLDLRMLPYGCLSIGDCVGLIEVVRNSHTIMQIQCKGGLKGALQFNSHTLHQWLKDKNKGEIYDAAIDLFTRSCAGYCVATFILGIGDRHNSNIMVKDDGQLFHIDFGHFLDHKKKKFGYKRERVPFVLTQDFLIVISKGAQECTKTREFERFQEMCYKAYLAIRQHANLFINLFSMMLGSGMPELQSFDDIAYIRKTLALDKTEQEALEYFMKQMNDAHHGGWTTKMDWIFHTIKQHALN

[15] = target: T10, EGFR(L861Q) (Homo sapiens, UniProt P00533, L861Q); test: KINOMEscan; assay type: binding; settings: read-out: % Ctrl
T10 construct: purchased DiscoveRx KINOMEscan
T10 sequence (P00533 25-1210 L861Q): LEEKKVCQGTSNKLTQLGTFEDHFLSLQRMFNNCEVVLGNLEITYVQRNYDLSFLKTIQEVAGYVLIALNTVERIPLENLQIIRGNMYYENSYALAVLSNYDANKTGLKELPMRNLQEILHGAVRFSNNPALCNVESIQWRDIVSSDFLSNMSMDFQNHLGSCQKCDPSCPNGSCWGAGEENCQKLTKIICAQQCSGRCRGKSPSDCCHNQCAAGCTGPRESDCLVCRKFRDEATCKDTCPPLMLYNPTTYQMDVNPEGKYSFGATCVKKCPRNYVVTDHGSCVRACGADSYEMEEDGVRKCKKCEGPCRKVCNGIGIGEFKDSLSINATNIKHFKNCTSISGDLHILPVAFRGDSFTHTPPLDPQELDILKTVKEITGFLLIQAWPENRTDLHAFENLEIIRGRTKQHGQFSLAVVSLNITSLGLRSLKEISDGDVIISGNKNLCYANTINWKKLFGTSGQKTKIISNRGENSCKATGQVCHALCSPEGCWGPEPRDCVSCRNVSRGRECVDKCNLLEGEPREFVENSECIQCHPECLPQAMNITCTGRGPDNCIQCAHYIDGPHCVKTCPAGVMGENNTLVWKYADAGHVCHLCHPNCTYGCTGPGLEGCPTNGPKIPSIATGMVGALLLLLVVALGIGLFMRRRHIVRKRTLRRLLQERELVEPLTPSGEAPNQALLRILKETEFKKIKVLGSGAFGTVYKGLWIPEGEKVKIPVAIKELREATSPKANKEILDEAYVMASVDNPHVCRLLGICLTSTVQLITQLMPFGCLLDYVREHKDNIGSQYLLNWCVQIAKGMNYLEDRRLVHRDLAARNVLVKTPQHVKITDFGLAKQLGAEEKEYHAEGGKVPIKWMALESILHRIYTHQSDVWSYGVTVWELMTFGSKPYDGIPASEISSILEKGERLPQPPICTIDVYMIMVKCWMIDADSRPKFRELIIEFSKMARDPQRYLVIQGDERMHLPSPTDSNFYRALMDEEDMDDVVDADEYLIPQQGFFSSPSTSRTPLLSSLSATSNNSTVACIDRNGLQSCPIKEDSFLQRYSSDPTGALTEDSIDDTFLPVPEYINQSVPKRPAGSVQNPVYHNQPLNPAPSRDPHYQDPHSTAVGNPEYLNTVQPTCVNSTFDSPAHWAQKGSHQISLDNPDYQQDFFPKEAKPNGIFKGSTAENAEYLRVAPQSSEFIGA

[16] = target: T11, FLT3(D835H) (Homo sapiens, UniProt P36888, D835H); test: KINOMEscan; assay type: binding; settings: read-out: % Ctrl
T11 construct: purchased DiscoveRx KINOMEscan

[17] = target: T12, ABL1(F317I)-nonphosphorylated (Homo sapiens, UniProt P00519, F317I); test: KINOMEscan; assay type: binding; settings: read-out: % Ctrl
T12 construct: purchased DiscoveRx KINOMEscan

[18] = system: H460TaxR; test: Apoptosis flow cytometry (PI/Annexin V-FITC); assay type: cell-based, human; settings: NSCLC cells (H460TaxR), 2 μM, 48 h
[19] = target: T13, ABL1(Q252H)-phosphorylated (Homo sapiens, UniProt P00519, Q252H); test: KINOMEscan; assay type: binding; settings: read-out: % Ctrl
T13 construct: purchased DiscoveRx KINOMEscan

[20] = target: T14, FGFR3(G697C) (Homo sapiens, UniProt P22607, G697C); test: KINOMEscan; assay type: binding; settings: read-out: % Ctrl
T14 construct: purchased DiscoveRx KINOMEscan
T14 sequence (P22607 23-806 G697C): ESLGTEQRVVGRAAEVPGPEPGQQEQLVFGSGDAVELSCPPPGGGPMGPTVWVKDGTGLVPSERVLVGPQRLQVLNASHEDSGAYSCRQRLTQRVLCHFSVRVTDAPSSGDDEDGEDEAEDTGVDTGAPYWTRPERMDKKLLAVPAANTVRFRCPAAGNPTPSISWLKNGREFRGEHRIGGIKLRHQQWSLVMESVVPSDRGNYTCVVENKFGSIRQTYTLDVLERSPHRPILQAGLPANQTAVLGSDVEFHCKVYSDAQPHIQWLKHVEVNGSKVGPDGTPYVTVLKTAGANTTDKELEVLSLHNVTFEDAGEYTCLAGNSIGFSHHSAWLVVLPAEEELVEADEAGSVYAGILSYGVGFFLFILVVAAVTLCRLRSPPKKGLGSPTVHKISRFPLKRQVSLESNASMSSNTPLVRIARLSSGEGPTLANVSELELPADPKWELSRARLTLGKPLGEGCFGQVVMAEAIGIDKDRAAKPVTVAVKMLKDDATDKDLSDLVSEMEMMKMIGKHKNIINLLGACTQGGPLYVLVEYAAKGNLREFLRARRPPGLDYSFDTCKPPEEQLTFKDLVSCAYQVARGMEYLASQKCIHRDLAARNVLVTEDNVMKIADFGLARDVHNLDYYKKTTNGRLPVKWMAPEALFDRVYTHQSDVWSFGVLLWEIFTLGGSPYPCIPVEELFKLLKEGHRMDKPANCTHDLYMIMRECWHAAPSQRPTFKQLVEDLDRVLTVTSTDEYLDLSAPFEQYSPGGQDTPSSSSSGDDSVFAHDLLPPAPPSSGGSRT

T2 sequence (P42336 whole entry Q546K): as the sequence (P42336 whole entry E545A) above, with A545E, Q546K counted along it

Structure (SMILES): Cc1ccc(C2=Nc3cccnc3S(=O)(=O)c3ccccc32)cc1 [TBPT, 6-(p-tolyl)benzo[f] pyrido[2,3-b][1,4] thiazepine 11,11-dioxide]
- remaining binding at 5 µM ([1]; 5 μM): 78%
- remaining binding at 10 µM ([1]; 10 μM): 100%
- remaining binding at 5 µM ([2]; 5 μM): 100%
- remaining binding at 10 µM ([2]; 10 μM): 94%
- remaining binding at 5 µM ([3]; 5 μM): 97%
- remaining binding at 10 µM ([3]; 10 μM): 90%
- remaining binding at 5 µM ([4]; 5 μM): 85%
- remaining binding at 10 µM ([4]; 10 μM): 100%
- remaining binding at 5 µM ([5]; 5 μM): 91%
- remaining binding at 10 µM ([5]; 10 μM): 91%
- P-gp ATPase activity [6]: did not induce P-gp ATPase activity
- mitochondrial membrane potential [7]: decreased significantly
- mitochondrial membrane potential [8]: decreased significantly
- half-life [9]: > 50 h
- microtubule organization in live cells [10]: disordered microtubule fragments
- microtubule organization in live cells [11]: disordered microtubule fragments
- remaining binding at 5 µM ([12]; 5 μM): 92%
- remaining binding at 10 µM ([12]; 10 μM): 100%
- remaining binding at 5 µM ([13]; 5 μM): 72%
- remaining binding at 10 µM ([13]; 10 μM): 98%
- remaining binding at 5 µM ([14]; 5 μM): 100%
- remaining binding at 10 µM ([14]; 10 μM): 100%
- remaining binding at 5 µM ([15]; 5 μM): 100%
- remaining binding at 10 µM ([15]; 10 μM): 100%
- remaining binding at 5 µM ([16]; 5 μM): 100%
- remaining binding at 10 µM ([16]; 10 μM): 97%
- remaining binding at 5 µM ([17]; 5 μM): 89%
- remaining binding at 10 µM ([17]; 10 μM): 100%
- cells in an apoptotic/necrotic state [18]: approximately 50%
- remaining binding at 5 µM ([19]; 5 μM): 83%
- remaining binding at 10 µM ([19]; 10 μM): 100%
- remaining binding at 5 µM ([20]; 5 μM): 100%
- remaining binding at 10 µM ([20]; 10 μM): 82%

— PMC4823954, “From fighting depression to conquering tumors: a novel tricyclic thiazepine compound as a tubulin polymerization inhibitor” (Cell Death & Disease, 2016)
